Laboratory results as given in patent US20120003298A1, “METHODS FOR INDUCING AN IMMUNE RESPONSE” (priority 2010, published 2012).

Key:
[1] = Single dose intravenous toxicity study in rats; type: in vivo, Sprague Dawley rat
Protocol: An additional group, similarly composed, received the vehicle alone and acted as a control. […] Clinical signs were limited to piloerection and reduced activity, observed on the day of dosing.
A second group was dosed at 100 mg/kg. […] A third group was then dosed at 85 mg/kg. […] A fourth group was finally dosed at 90 mg/kg. […] Piloerection was observed from Day 2 up to Day 4 of the study.
In the main phase, 5 male and 5 female animals were dosed at 90 mg/kg and observed for a period of 14 days. A second group, similarly constituted, received the vehicle alone and acted as control. […] In addition, one male and one female dosed at 90 mg/kg were found dead on Day 2 of the study. Twitches, ataxia, piloerection, reduced activity and hunched posture were the major signs observed in animals before death. […] Piloerection was observed up to Day 3 of the study. A second group, similarly composed, was dosed at 80 mg/kg.
Recovery occurred by Day 15 and the body weight changes were within the expected range for this species and age of animals at the end of the study. […] Surviving animals were killed at the end of the observation period with carbon dioxide narcosis. All animals, including the early decedents, were subjected to necropsy examination. […] Therefore, the maximum tolerated dose in this study was considered to be 80 mg/kg.

[2] = test system: HLA-DR+/CD20+ B cells; assay: FACS, B cell activation in whole blood; type: cell-based, human; conditions: 24 hours; 2 and 10 uM
Protocol: (§1) The FACS analysis for donor 1 and donor 2 was made on another day than donor 3. The compound concentrations were as follows:
(§2) B cell activation: 2 and 10 uM mDC/pDC: 0.1 and 0.5 uM
(§3) The FACS analysis was used to identify whether the test compounds could induce activation of B cells, and two different subsets of dendritic cells, namely the myeloid CD11c+/CD123− DCs and the plasmacytoid CD11c−/CD123+DCs. The following markers were studied to identify the activation status of the different subsets:
B-cells: HLA-DR/CD20/CD40
The FACS staining was performed according to the manufacturer's instructions. Lysis of red blood cells was performed before FACS staining in order to minimize auto-florescence. To include as many B cells and DCs in the study as possible the FACS analyses were performed on 500,000 cells in total for each staining. […] The results of the individual analysis were present as Mean Fluorescence Intensity (MFI) values, for certain activation marker in a given gate setting, represent the actual cell subset. The isotype background values have been used to set the gates so that a maximum at 2% of unspecific stained cells could be found in the positive gates.
The analysis of expression of the activation marker CD40 on B cells was made on double positive HLA-DR (MHC class II) (P4 gate) and CD20 cells (B cell marker) (P8 gate).

[3] = In vivo pharmacodynamics, serum cytokines after intravenous injection; set-up: species or system mouse; conditions: 200 nmol intravenously
Protocol: For in vivo pharmacodynamic experiments, 6- to 8-week old C57BU6 mice were intravenously injected with the unconjugated and phospholipid-conjugated TLR7 agonists (200 nmol). Sera were separated and kept at −20° C. until use. The levels of cytokines in the sera were measured by Luminex bead microassay. The minimum detection levels of IL-6 and TNF-alpha were 5 pg/mL and 10 pg/mL, respectively.

[4] = test system: plasmacytoid CD11c−/CD123+DCs; assay: FACS, plasmacytoid DC activation in whole blood; type: cell-based, human; conditions: 24 hours; 0.1 and 0.5 uM
Protocol: as §1, §2, §3
The FACS staining was performed according to the manufacturer's instructions. Lysis of red blood cells was performed before FACS staining in order to minimize auto-florescence. To include as many B cells and DCs in the study as possible the FACS analyses were performed on 500,000 cells in total for each staining. A P1 gate was set only to include relevant cells on FSC vs. SSC (see FIGS. 12-15). The results of the individual analysis were present as Mean Fluorescence Intensity (MFI) values, for certain activation marker in a given gate setting, represent the actual cell subset. The isotype background values have been used to set the gates so that a maximum at 2% of unspecific stained cells could be found in the positive gates.
The analysis of pDCs was based on HLA-DR+/CD11c−/CD123+ cells, thus all analyzed cells were included in the HLA-DR+ (P3) gate and CD11c−/CD123+(Q1) gate.

[5] = target: T1, CYP3A5 (Homo sapiens, UniProt P20815); assay: Fluorescent High Throughput P450 assay, CYP3A5; type: biochemical
T1 construct: purchased Gentest
T1 sequence (P20815 whole entry): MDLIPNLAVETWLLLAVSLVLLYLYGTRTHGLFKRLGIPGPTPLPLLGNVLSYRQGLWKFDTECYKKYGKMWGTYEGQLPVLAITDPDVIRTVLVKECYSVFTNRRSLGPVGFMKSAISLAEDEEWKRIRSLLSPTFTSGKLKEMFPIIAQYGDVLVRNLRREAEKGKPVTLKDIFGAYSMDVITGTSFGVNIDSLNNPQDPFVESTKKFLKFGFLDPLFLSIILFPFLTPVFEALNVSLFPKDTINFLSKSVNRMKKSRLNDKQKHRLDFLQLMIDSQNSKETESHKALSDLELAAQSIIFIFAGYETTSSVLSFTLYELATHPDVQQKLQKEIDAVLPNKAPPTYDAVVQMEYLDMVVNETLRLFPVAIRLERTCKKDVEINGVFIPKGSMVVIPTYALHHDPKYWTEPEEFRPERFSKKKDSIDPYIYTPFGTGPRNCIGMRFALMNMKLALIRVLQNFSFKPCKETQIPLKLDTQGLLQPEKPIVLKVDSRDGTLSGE
Protocol: (§4) Inhibition of the P450 isoforms was measured in specific assays using specific substrates that become fluorescent upon CYP metabolism. Compounds, dissolved in ACN (acetonitrile) (CYP2E1, CYP2C8, CYP2B6, CYP3A5) or DMSO (all remaining isoforms), were tested in duplicate (n=2) in concentration-response curves (eight concentrations) in a 96-well plate containing incubation/NADPH regenerating buffer. Specific isoenzymes and substrates were added and incubated at 37° C. Reactions were terminated at different times, depending on the assays, and plates read on a Fluoroskan Ascent at the appropriate emission/excitation wavelengths. Concentration-response curves performed in duplicate for known inhibitors for each isoenzyme were tested in every assay as positive control.

[6] = test system: NFκB-bla Raw 264.7 Cells; assay: NFκB activation in NFκB-bla Raw 264.7 cells; type: cell-based, mouse; conditions: FIG. 2
Protocol: NFκB-bla Raw 264.7 Cells were purchased from Life Technologies Corporation (Carlsbad, Calif.). […] Drugs were dissolved and diluted in DMSO to obtain an initial stock solution (10 or 50 mM). Drugs were then serially diluted (usually 1:3 or 1:5) in DMSO. The stock solutions were further diluted in Assay Medium and added to cells already in each well.

[7] = target: T2, CYP2E1 (Homo sapiens, UniProt P05181); assay: Fluorescent High Throughput P450 assay, CYP2E1; type: biochemical
T2 construct: purchased Gentest
T2 sequence (P05181 whole entry): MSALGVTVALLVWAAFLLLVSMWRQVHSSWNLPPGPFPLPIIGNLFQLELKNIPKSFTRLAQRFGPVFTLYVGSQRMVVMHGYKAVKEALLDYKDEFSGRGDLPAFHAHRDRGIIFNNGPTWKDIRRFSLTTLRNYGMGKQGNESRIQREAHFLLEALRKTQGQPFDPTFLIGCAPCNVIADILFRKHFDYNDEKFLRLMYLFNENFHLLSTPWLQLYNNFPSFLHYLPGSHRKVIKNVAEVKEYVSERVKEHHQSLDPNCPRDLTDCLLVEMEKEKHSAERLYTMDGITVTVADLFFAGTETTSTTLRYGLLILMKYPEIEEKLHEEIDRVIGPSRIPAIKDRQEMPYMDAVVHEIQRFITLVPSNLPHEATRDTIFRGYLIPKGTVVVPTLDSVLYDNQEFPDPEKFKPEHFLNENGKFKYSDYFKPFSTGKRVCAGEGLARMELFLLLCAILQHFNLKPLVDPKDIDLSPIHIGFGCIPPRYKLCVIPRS
Protocol: as §4

[8] = test system: recombinant antigens from Plasmodium falciparum and Mycobacterium ulcerans; assay: Pilot immunization study with adjuvanted recombinant protein antigens; type: in vivo, mouse
Protocol: A pilot immunization study was conducted using Compound A and SC12 adjuvanted protein antigens. The immunization experiments were performed with two recombinant proteins expressed in E. coli. One antigen was derived from the malaria parasite Plasmodium falciparum and the other one from Mycobacterium ulcerans, which cause the ulcerative skin disease Buruli ulcer.

[9] = test system: Inv-Myc mice; assay: Mouse skin cancer model (Inv-Myc mice, Tamoxifen induction), topical creams; type: in vivo
Protocol: The mice used are essentially discussed in Pelengaris, S., et al., (1999) Molecular Cell 3:565-77. Activation of c-myc in this model, such as by the application of Tamoxifen, leads to increased keratinocyte proliferation, reversible epidermal hyperplasia, and papillomatosis changes.
Sex-matched 8-15 week old Inv-Myc mice were used for the study. The mice were shaved on the back 24 hours before the daily Tamoxifen induction (1 mg/200 microliters ethanol, day 0 to 7) to an area 5×3 cm^2. […] Mice were sacrificed on day 10. […] Sera were collected when mice were sacrificed and 2 hours after the first cream application in some instances.

[10] = Intravenous pharmacokinetics in the mouse
Protocol: An IV bolus was administered into the caudal vein at a dose of 1 mg/kg in 5 ml. The compound weight was 2.08/10.04 ml. 24 mice were studied. Sampling was obtained by exsanguination under anesthesia, at 5, 15, 30, 60, 240, and 480 minutes, and at 24 hours. […] Animals were sacrificed using ethyl ether at the conclusion of the experiment.
Sample preparation: In a Sirocco filter plate, 100 microliters of plasma were added to 300 microliters of ACN/MeOH spiked with 5 microliters of IS (IV298 10 micrograms per ml) plus 10 microliters of 5% H3PO4. The plate was shaken for 10 minutes at 80 rpm and then filtered under vacuum for 5 minutes.
Analytical method: LC/MS/MS: Premiere XE, Eluent: water (A) MeOH(B) plus 0.1% HCOOH gradient. 15% B to 100% B from 0.1 to 0.5, then isocratic 100% B up to 1.5 minutes, flow 0.8 ml/min; Column Acquity HPLC BEH C18 1.7 microm 2.1×50 mm, injection volume of 5 microliters in a T column at 50° C. ESI positive, MRM, Extractor 5V; Capillary 3.5 kV; T source 115° C.; T desolv. 450° C.
Data analysis: Non-compartmental analysis WinNonlin 5.1; linear trapezoidal, uniform weight.

[11] = test system: human PBMCs; assay: IL-6 secretion in human PBMCs, two batches of Compound A and SC12 (Example 4); type: cell-based; conditions: 5 months storage in DMSO at 4° C.
Protocol: PBMCs were purified from two donors and plated into 96 well plates at 2×10^5 cells/well in RPMI media including human 2% heat inactivated AB serum, glutamine, Pen-strep and β-mercaptoethanol. The cells were treated with TLR7 agonists for 24 h in 4 doses. The conditioned media was removed for ELISA analyses for IL-6, and the EC50 value determined for each compound and each batch.
All compounds were tested in four concentrations (10-1-0.1-0.01 micromolar).
Concentrations of IL-6 were determined by ELISA from R&D Systems using the Microsoft Excel software. The results were analyzed in Graph Pad Prism in order to prepare dose-response curves, and for determination of EC50 values.

[12] = test system: Escherichia coli WP2 uvrA; assay: Bacterial mutation assay, Escherichia coli; type: cell-based
Protocol: The five tester strains TA1535, TA1537, TA98, TA100 and WP2 uvrA were used. Experiments were performed both in the absence and presence of metabolic activation, using liver S9 fraction from rats pre-treated with phenobarbitone and betanaphthoflavone. SC12 was used as a solution in dimethylsulfoxide (DMSO).

[13] = test system: AY-27 rat bladder cancer cell-line; conditions: in vivo
[14] = target: T3, CYP3A4 (Homo sapiens, UniProt P08684); assay: Fluorescent High Throughput P450 assay, CYP3A4; type: biochemical
T3 construct: purchased Gentest
T3 sequence (P08684 whole entry): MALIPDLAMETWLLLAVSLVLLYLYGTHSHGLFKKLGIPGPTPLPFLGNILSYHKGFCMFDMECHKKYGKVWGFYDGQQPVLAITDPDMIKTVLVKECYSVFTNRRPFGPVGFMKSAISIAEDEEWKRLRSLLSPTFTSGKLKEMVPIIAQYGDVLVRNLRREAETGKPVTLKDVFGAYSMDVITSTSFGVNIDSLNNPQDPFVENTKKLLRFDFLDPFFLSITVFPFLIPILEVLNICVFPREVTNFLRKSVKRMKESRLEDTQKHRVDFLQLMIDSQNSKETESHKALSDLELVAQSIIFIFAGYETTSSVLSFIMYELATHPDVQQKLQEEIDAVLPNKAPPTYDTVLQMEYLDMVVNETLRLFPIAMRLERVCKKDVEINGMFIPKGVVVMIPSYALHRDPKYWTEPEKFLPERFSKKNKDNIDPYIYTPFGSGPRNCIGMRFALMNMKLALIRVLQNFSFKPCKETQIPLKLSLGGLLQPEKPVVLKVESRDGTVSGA
Protocol: as §4

In the case of `CCCCCCCCCCCC(=O)OCC(COP(=O)(O)OCCNC(=O)c1ccc(Cn2c(=O)[nH]c3c(N)nc(OCCOC)nc32)cc1)OC(=O)CCCCCCCCCCC` (stereo not drawn) [SC12], the “mortality and clinical signs” value ([1]; 76 mg/kg, preliminary phase) is reported as “No mortality occurred”, the “mortality and clinical signs” value ([1]; 80 mg/kg, main phase) is reported as “No mortality occurred and no clinical signs were recorded” and the “mortality and clinical signs” value ([1]; 85 mg/kg, preliminary phase) is reported as “Piloerection was observed on the day of dosing”. For the same compound, the “necropsy examination” value ([1]; 90 mg/kg and 80 mg/kg) was “No abnormalities were observed at necropsy examination”, the “mortality and clinical signs” value ([1]; 90 mg/kg, main phase, 5 male and 5 female) was “Three males treated at 90 mg/kg died immediately after dosing, while two females died at 2 hours post-dose” and the “mortality and clinical signs” value ([1]; 90 mg/kg, preliminary phase) was “No mortality occurred”. The “mortality and clinical signs” value ([1]; 100 mg/kg, preliminary phase) was “Both animals died at dosing”, the “body weight” value ([1]; surviving animals at 90 mg/kg and animals at 80 mg/kg) was “slight to moderate body weight loss on Day 2” and the “CD40 expression on B cells (MFI, words)” value [2] was “induced CD40 expression in donor 1 and donor 2 in all tested concentrations”. The “time course of cytokine induction” value [3] was “lower but sustained cytokine induction than the free ligand”, the “serum proinflammatory cytokine levels” value ([3]; C57BL/6 mice) was “induced similar levels of the proinflammatory cytokines IL-6, IL-12 and TNF-alpha” and the “CD80 expression in pDCs (MFI, words)” value [4] was “slightly higher CD80 expression than compound A”. The “CD86 expression in pDCs (MFI, words)” value [4] was “tendency to induce higher CD86 expression than compound A”, the “inhibition of CYP3A5” value [5] was “moderate inhibition” and the “activity in NFkB RAW cells” value [6] was “more active than the free pharmocophore”. For the same compound, the “inhibition of CYP2E1” value [7] was “moderate inhibition”, the “local side effects” value ([8]; subcutaneous, 10 nMol) was “No local side effects” and the “IgG responses against the target antigens” value ([8]; three subcutaneous immunizations, 20 micrograms antigen with 10 nMol adjuvant) was “developed IgG responses”. For the same compound, the “serum IL-6” value ([9]; 2 hours after the first administration) was “less IL-6 than Aldara”, the “Ki67 positive cells” value ([9]; Experiment 1) was “decreased Ki67 positive cells” and the “gross appearance of skin” value ([9]; Experiment 1) was “redness and scaling”. The “gross appearance of skin” value ([9]; Experiment 2) was “smooth and soft”, the “skin thickness” value ([9]; Experiment 2) was “decreased development of skin thickness” and the “acanthosis” value ([9]; cream every other day, days 0-8) was “reduction in acanthosis”. The “eczematous reaction” value ([9]; mouse, in vivo) was “less eczematous reaction than Aldara (Imiquimod) cream”, the “adverse behavioral effects” value ([10]; IV 1 mg/kg) was “No adverse behavioral effects were noted” and the “AUC INF obs” value ([10]; IV bolus 1 mg/kg, plasma) was 12878 ng·min/mL. The AUClast ([10]; IV bolus 1 mg/kg, plasma) was 11744 ng·min/mL, the “activity after storage” value [11] was “have not lost activity” and the “toxicity to tester strains” value ([12]; 50.0-5000 micrograms/plate, absence or presence of S9) was “No toxicity was observed with any tester strain at any dose level”. The “reverse mutation” value ([12]; up to 5000 micrograms/plate, absence or presence of S9 metabolism) was “does not induce reverse mutation”, the “toxicity” value [13] was “No signs of toxicity” and the “inhibition of CYP3A4” value [14] was “moderate inhibition”.
